Measurements reported in patent publication US20240293379A1, “THERAPEUTIC AGENT FOR CANCER OF PATIENT WITH DECREASE IN RB1 FUNCTION USING MYT1 INHIBITOR AND CHEMOTHERAPEUTIC AGENT IN COMBINATION, AND TREATMENT METHOD THEREOF” (Chugai Seiyaku Kabushiki Kaisha, priority 2022, published 2024).

Columns and labels:
Assay in all cases: Pemetrexed cytotoxicity test upon suppression of expression of MYT1
Type in all cases: cell-based
ChaGo-K-1 = ChaGo-K-1 (RB1 mutant)
Procedure: (§1) Thereafter, the plates were shaken to transfect each siRNA at a final concentration of 10 nM.
(§2) The −Log 2 value of fold change of IC50 and the maximum value of Bliss score, which are indexes of the combination effect, were calculated by comparing with the actually obtained cell survival curve, and described in Table 6 (see Non Patent Literature 9).

NCI-H596 = NCI-H596 (RB1 mutant)
Procedure: as §1, §2

NCI-H1666 = NCI-H1666 (RB1 wild-type)
Procedure: as §1, §2

NCI-H1155 = NCI-H1155 (RB1 mutant)
Procedure: as §1, §2

LU65 = LU65 (RB1 mutant)
Procedure: as §1, §2

PC-9 = PC-9 (RB1 wild-type)
Procedure: as §1, §2

NCI-H322 = NCI-H322 (RB1 wild-type)
Procedure: as §1, §2

NCI-H661 = NCI-H661 (RB1 wild-type)
Procedure: as §1, §2

NCI-H358 = NCI-H358 (RB1 wild-type)
Procedure: as §1, §2

EKVX = EKVX (RB1 wild-type)
Procedure: as §1, §2

NCI-H460 = NCI-H460 (RB1 wild-type)
Procedure: as §1, §2

NCI-H2122 = NCI-H2122 (RB1 wild-type)
Procedure: as §1, §2

NCI-H1993 = NCI-H1993 (RB1 wild-type)
Procedure: as §1, §2

NCI-H2110 = NCI-H2110 (RB1 mutant)
Procedure: as §1, §2

A549 = A549 (RB1 wild-type)
Procedure: as §1, §2

ABC-1 = ABC-1 (RB1 wild-type)
Procedure: as §1, §2

HOP-62 = HOP-62 (RB1 wild-type)
Procedure: as §1, §2

NCI-H292 = NCI-H292 (RB1 wild-type)
Procedure: as §1, §2

NCI-H441 = NCI-H441 (RB1 wild-type)
Procedure: as §1, §2

[1] = pemetrexed + MYT1 siRNA #16 10 nM

MYT1 #16: ON-TARGETplus individual siRNA, Dharmacon product code J-005026-16, nucleotide sequence SEQ ID No: 4 (GGACCUAAGUGACAUCAAC; chemistry not fully specified)
Cytotoxic activity of siRNA alone, MYT1 #16 (ChaGo-K-1; 10 nM, no pemetrexed): −1.049% | Bliss score maximum value, MYT1 #16 (ChaGo-K-1; [1]): 40.066 | HSA score maximum value, MYT1 #16 (ChaGo-K-1; [1]): 39.075 | Cytotoxic activity of siRNA alone, MYT1 #16 (NCI-H596; 10 nM, no pemetrexed): 13.549% | Bliss score maximum value, MYT1 #16 (NCI-H596; [1]): 56.598 | HSA score maximum value, MYT1 #16 (NCI-H596; [1]): 67.277 | Cytotoxic activity of siRNA alone, MYT1 #16 (NCI-H1666; 10 nM, no pemetrexed): −4.467% | Bliss score maximum value, MYT1 #16 (NCI-H1666; [1]): 8.127 | HSA score maximum value, MYT1 #16 (NCI-H1666; [1]): 5.753 | Cytotoxic activity of siRNA alone, MYT1 #16 (NCI-H1155; 10 nM, no pemetrexed): 5.782% | Bliss score maximum value, MYT1 #16 (NCI-H1155; [1]): 77.287 | HSA score maximum value, MYT1 #16 (NCI-H1155; [1]): 76.586 | Cytotoxic activity of siRNA alone, MYT1 #16 (LU65; 10 nM, no pemetrexed): 8.109% | Bliss score maximum value, MYT1 #16 (LU65; [1]): 29.374 | HSA score maximum value, MYT1 #16 (LU65; [1]): 34.405 | Cytotoxic activity of siRNA alone, MYT1 #16 (PC-9; 10 nM, no pemetrexed): −5.180% | Bliss score maximum value, MYT1 #16 (PC-9; [1]): 35.148 | Cytotoxic activity of siRNA alone, MYT1 #16 (NCI-H322; 10 nM, no pemetrexed): −10.363% | Bliss score maximum value, MYT1 #16 (NCI-H322; [1]): 24.679 | Cytotoxic activity of siRNA alone, MYT1 #16 (NCI-H661; 10 nM, no pemetrexed): 20.313% | Bliss score maximum value, MYT1 #16 (NCI-H661; [1]): 8.081 | HSA score maximum value, MYT1 #16 (NCI-H661; [1]): 22.502 | Cytotoxic activity of siRNA alone, MYT1 #16 (NCI-H358; 10 nM, no pemetrexed): 0.021% | Bliss score maximum value, MYT1 #16 (NCI-H358; [1]): 12.322 | HSA score maximum value, MYT1 #16 (NCI-H358; [1]): 12.336 | Cytotoxic activity of siRNA alone, MYT1 #16 (EKVX; 10 nM, no pemetrexed): −1.125% | Bliss score maximum value, MYT1 #16 (EKVX; [1]): 16.454 | HSA score maximum value, MYT1 #16 (EKVX; [1]): 15.771 | Cytotoxic activity of siRNA alone, MYT1 #16 (NCI-H460; 10 nM, no pemetrexed): −6.609% | Bliss score maximum value, MYT1 #16 (NCI-H460; [1]): 17.443 | HSA score maximum value, MYT1 #16 (NCI-H460; [1]): 9.093 | Cytotoxic activity of siRNA alone, MYT1 #16 (NCI-H2122; 10 nM, no pemetrexed): 11.825% | Bliss score maximum value, MYT1 #16 (NCI-H2122; [1]): 15.749 | HSA score maximum value, MYT1 #16 (NCI-H2122; [1]): 20.659 | Cytotoxic activity of siRNA alone, MYT1 #16 (NCI-H1993; 10 nM, no pemetrexed): 35.910% | Bliss score maximum value, MYT1 #16 (NCI-H1993; [1]): 5.736 | HSA score maximum value, MYT1 #16 (NCI-H1993; [1]): 21.843 | Cytotoxic activity of siRNA alone, MYT1 #16 (NCI-H2110; 10 nM, no pemetrexed): 15.886% | Bliss score maximum value, MYT1 #16 (NCI-H2110; [1]): 24.584 | HSA score maximum value, MYT1 #16 (NCI-H2110; [1]): 36.712 | Cytotoxic activity of siRNA alone, MYT1 #16 (A549; 10 nM, no pemetrexed): −3.683% | Bliss score maximum value, MYT1 #16 (A549; [1]): 17.634 | HSA score maximum value, MYT1 #16 (A549; [1]): 15.047 | Cytotoxic activity of siRNA alone, MYT1 #16 (ABC-1; 10 nM, no pemetrexed): 3.870% | Bliss score maximum value, MYT1 #16 (ABC-1; [1]): 21.970 | HSA score maximum value, MYT1 #16 (ABC-1; [1]): 25.475 | Cytotoxic activity of siRNA alone, MYT1 #16 (HOP-62; 10 nM, no pemetrexed): 8.347% | Bliss score maximum value, MYT1 #16 (HOP-62; [1]): 20.165 | HSA score maximum value, MYT1 #16 (HOP-62; [1]): 24.453 | Cytotoxic activity of siRNA alone, MYT1 #16 (NCI-H292; 10 nM, no pemetrexed): 19.878% | Bliss score maximum value, MYT1 #16 (NCI-H292; [1]): 19.031 | HSA score maximum value, MYT1 #16 (NCI-H292; [1]): 21.907 | Cytotoxic activity of siRNA alone, MYT1 #16 (NCI-H441; 10 nM, no pemetrexed): 12.986% | Bliss score maximum value, MYT1 #16 (NCI-H441; [1]): 21.600 | HSA score maximum value, MYT1 #16 (NCI-H441; [1]): 30.794
